Measurements from patent US20030232986A1, “Inhibitors of caspases” (Vertex Pharmaceuticals Incorporated, priority 1998, published 2003).
Where two headings read alike, the source gives them in different places.

Assays:
[1] = test system: Human Peripheral Blood Mononuclear Cells (PBMC), mature IL-1β; experiment: PBMC cell assay: IL-1β assay with human peripheral blood mononuclear cells; format: cell-based; settings: LPS-stimulated human PBMC, mature IL-1β in supernatant by ELISA
Excerpt: IL-1β Assay with a Mixed Population of Human Peripheral Blood Mononuclear Cells (PBMC) or Enriched Adherent Mononuclear Cells
Processing of pre-IL-1β by ICE can be measured in cell culture using a variety of cell sources. Human PBMC obtained from healthy donors provides a mixed population of lymphocyte subtypes and mononuclear cells that produce a spectrum of interleukins and cytokines in response to many classes of physiological stimulators. Adherent mononuclear cells from PBMC provides an enriched source of normal monocytes for selective studies of cytokine production by activated cells.
An initial dilution series of test compound in DMSO or ethanol is prepared, with a subsequent dilution into RPMI-10% FBS media (containing 2 mM L-glutamine, 10 mM HEPES, 50 U and 50 ug/ml pen/strep) respectively to yield drugs at 4× the final test concentration containing 0.4% DMSO or 0.4% ethanol. The final concentration of DMSO is 0.1% for all drug dilutions. A concentration titration which brackets the apparent Ki for a test compound determined in an ICE inhibition assay is generally used for the primary compound screen.
Generally 5-6 compound dilutions are tested and the cellular component of the assay is performed in duplicate, with duplicate ELISA determinations on each cell culture supernatant.
Buffy coat cells isolated from one pint human blood (yielding 40-45 ml final volume plasma plus cells) are diluted with media to 80 ml and LeukoPREP separation tubes (Becton Dickinson) are each overlaid with 10 ml of cell suspension. After 15 min centrifugation at 1500-1800×g, the plasma/media layer is aspirated and then the mononuclear cell layer is collected with a Pasteur pipette and transferred to a 15 ml conical centrifuge tube (Corning). Media is added to bring the volume to 15 ml, gently mix the cells by inversion and centrifuge at 300×g for 15 min. The PBMC pellet is resuspended in a small volume of media, the cells are counted and adjusted to 6×10^6 cells/ml.
For the cellular assay, 1.0 ml of the cell suspension is added to each well of a 24-well flat bottom tissue culture plate (Corning), 0.5 ml test compound dilution and 0.5 ml LPS solution (Sigma #L-3012; 20 ng/ml solution prepared in complete RPMI media; final LPS concentration 5 ng/ml). The 0.5 ml additions of test compound and LPS are usually sufficient to mix the contents of the wells. Three control mixtures are run per experiment, with either LPS alone, solvent vehicle control, and/or additional media to adjust the final culture volume to 2.0 ml. The cell cultures are incubated for 16-18 hr at 37° C. in the presence of 5% CO2.
At the end of the incubation period, cells are harvested and transferred to 15 ml conical centrifuge tubes. After centrifugation for 10 min at 200×g, supernatants are harvested and transferred to 1.5 ml Eppendorf tubes. It may be noted that the cell pellet may be utilized for a biochemical evaluation of pre-IL-1β and/or mature IL-1β content in cytosol extracts by Western blotting or ELISA with pre-IL-1β specific antisera.
PBMC are isolated and prepared as described above. Media (1.0 ml) is first added to wells followed by 0.5 ml of the PBMC suspension. After a one hour incubation, plates are gently shaken and nonadherent cells aspirated from each well. Wells are then gently washed three times with 1.0 ml of media and final resuspended in 1.0 ml media. The enrichment for adherent cells generally yields 2.5-3.0×10^5 cells per well. The addition of test compounds, LPS, cell incubation conditions and processing of supernatants proceeds as described above.
Quantikine kits (R&D Systems) may be used for the measurement of mature IL-1β. Assays are performed according to the manufacturer's directions. Mature IL-1β levels of about 1-3 ng/ml in both PBMC and adherent mononuclear cell positive controls are observed. […]

Caspase-1 = molecular target: T1, Caspase-1 (Homo sapiens, UniProt P29466); experiment: Caspase-1 enzyme inhibition (Ki); format: biochemical
T1 sequence (P29466 120-297 limits assumed): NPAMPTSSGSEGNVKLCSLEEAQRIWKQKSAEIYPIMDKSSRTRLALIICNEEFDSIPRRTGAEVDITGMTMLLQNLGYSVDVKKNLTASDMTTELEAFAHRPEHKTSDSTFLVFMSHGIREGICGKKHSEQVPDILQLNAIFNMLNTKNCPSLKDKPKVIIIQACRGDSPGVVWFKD
T1 sequence (P29466 317-404 limits assumed): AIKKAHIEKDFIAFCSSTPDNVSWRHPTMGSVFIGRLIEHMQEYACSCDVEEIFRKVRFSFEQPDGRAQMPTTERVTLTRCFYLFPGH
Procedure, shortened: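 Ki obtained by fitting rate versus inhibitor concentration to the Morrison tight-binding equation for competitive inhibitors, with pNA release read at 405 nm at 37 °C. Substrate Suc-YVAD-pNA (80 μM final) added after 15 min enzyme–inhibitor preincubation in Tris pH 7.5 buffer with DTT and CHAPS.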

[2] = test system: Human whole blood, IL-1β production; experiment: Whole blood assay for IL-1β production; format: cell-based; settings: LPS-stimulated whole blood, IL-1β by ELISA
Experimental: The whole blood assay is a simple method for measuring the production of IL-1β (or other cytokines) and the activity of potential inhibitors. The complexity of this assay system, with its full complement of lymphoid and inflammatory cell types, spectrum of plasma proteins and red blood cells is an ideal in vitro representation of human in vivo physiologic conditions.
Set incubator or water bath at 30° C. Aliquot 0.25 ml of blood into 1.5 ml eppendorf tubes. Note: be sure to invert the whole blood sample tubes after every two aliquots. Differences in replicates may result if the cells sediment and are not uniformly suspended. Use of a positive displacement pipette will also minimize differences between replicate aliquots.
Prepare drug dilutions in sterile pyrogen-free saline by serial dilution. A dilution series which brackets the apparent Ki for a test compound determined in an ICE inhibition assay is generally used for the primary compound screen. For extremely hydrophobic compounds, prepare compound dilutions in fresh plasma obtained from the same blood donor or in PBS-containing 5% DMSO to enhance solubility.
Add 25 μl test compound dilution or vehicle control and gently mix the sample. Then add 5.0 μl LPS solution (250 ng/ml stocked prepared fresh: 5.0 ng/ml final concentration LPS), and mix again. Incubate the tubes at […] in a water bath for 16-18 hr with occasional mixing. Alternatively, the tubes can be placed in a rotator set at 4 rpm for the same incubation period. This assay should be set up in duplicate or triplicate with the following controls: negative control—no LPS; positive control—no test inhibitor; vehicle control—the highest concentration of DMSO or compound solvent used in the experiment. Additional saline is added to all control tubes to normalize volumes for both control and experimental whole blood test samples.
After the incubation period, whole blood samples are centrifuged for 10 minutes at ^˜2000 rpm in the microfuge, plasma is transferred to a fresh microfuge tube and centrifuged at 1000×g to pellet residual platelets if necessary. Plasma samples may be stored frozen at −70° C. prior to assay for cytokine levels by ELISA.
R & D Systems (614 McKinley Place N.E. Minneapolis, Minn. 55413) Quantikine kits may be used for measurement of IL-1β and TNF-α. The assays are performed according to the manufacture's directions. IL-1β levels of ^˜1-5 ng/ml in positive controls among a range of individuals may be observed. A 1:200 dilution of plasma for all samples is usually sufficient for experiments for ELISA results to fall on the linear range of the ELISA standard curves. It may be necessary to optimize standard dilutions if you observe differences in the whole blood assay. Nerad, J. L. et al., J. Leukocyte Biol., 52, pp. 687-692 (1992).

[3] = substrate Suc-YVAD-pNA 80 μM, 37° C., pH 7.5

| Structure (SMILES) | IC50 [1] [µM] | Ki (Caspase-1; [3]) [µM] | IC50 [2] [µM] | Ki (Caspase-1) [µM] |
| --- | --- | --- | --- | --- |
| CC(C)[C@H](NC(=O)c1nccc2ccccc12)C(=O)N1CSC(C)(C)[C@H]1C(=O)N[C@H](C=O)CC(=O)O [Example 28c] | 0.5 to 1 | < 0.01 | > 7.5 | – |
| CC(C)[C@H](NC(=O)Cc1ccccc1OCc1ccccc1)C(=O)N1CCC[C@H]1C(=O)N[C@H](C=O)CC(=O)O [Example 5ab] | 0.5 to 1 | 0.01 to 1 | 2.5 to 7.5 | 0.01 to 1 |
| CC(C)[C@H](NC(=O)c1cccc2c1Cc1ccccc1-2)C(=O)N1CCC[C@H]1C(=O)N[C@H](C=O)CC(=O)O [Example 5j] | > 2 | < 0.01 | > 7.5 | < 0.01 |
| CC(C)[C@H](NC(=O)c1ccccc1C(=O)N[C@@H](C)c1ccccc1)C(=O)N1CCC[C@H]1C(=O)N[C@H](C=O)CC(=O)O [Example 5x] | 0.5 to 1 | < 0.01 | < 2.5 | < 0.01 |
| Cc1cc(C(=O)N[C@@H](C)C(=O)N[C@@H](C)C(=O)N[C@H](C=O)CC(=O)O)cc(C)c1O [Example 29h] | < 0.5 | < 0.01 | < 2.5 | – |
| CC(C)[C@H](NC(=O)c1nccc2ccccc12)C(=O)N1C[C@H](NS(C)(=O)=O)C[C@H]1C(=O)N[C@H](C=O)CC(=O)O [Example 9d] | 0.5 to 1 | < 0.01 | < 2.5 | – |
| COc1ccc2cc([C@H](C)C(=O)N[C@H](C(=O)N3CCC[C@H]3C(=O)N[C@H](C=O)CC(=O)O)C(C)C)ccc2c1 [Example 5ag] | 0.5 to 1 | < 0.01 | 2.5 to 7.5 | < 0.01 |
| CCC(C)[C@H](NC(=O)c1cc(Cl)c(O)c(Cl)c1)C(=O)N1CCC[C@H]1C(=O)N[C@H](C=O)CC(=O)O (stereo partly shown) [Example 20k] | < 0.5 | < 0.01 | < 2.5 | – |
| C[C@H](NC(=O)c1ccc2c(c1)OCO2)C(=O)N1CCC[C@H]1C(=O)N[C@H](C=O)CC(=O)O [Example 7q] | > 2 | 0.01 to 1 | < 2.5 | – |
| CS(=O)(=O)C[C@H](NC(=O)c1ccc(N)c(Cl)c1)C(=O)N1CCC[C@H]1C(=O)N[C@H](C=O)CC(=O)O [Example 20t] | 0.5 to 1 | 0.01 to 1 | < 2.5 | – |
| CC[C@H](NC(=O)c1nccc2ccccc12)C(=O)N1CCC[C@H]1C(=O)N[C@H](C=O)CC(=O)O [Example 20e] | 1 to 2 | < 0.01 | 2.5 to 7.5 | – |
| C[C@H](NC(=O)[C@@H](NC(=O)c1cc2ccccc2[nH]1)C(C)(C)C)C(=O)N[C@H](C=O)CC(=O)O [Example 29j] | 0.5 to 1 | < 0.01 | < 2.5 | – |
| CC(C)[C@H](NC(=O)c1ccc(O)cc1)C(=O)N1CCC[C@H]1C(=O)N[C@H](C=O)CC(=O)O [Example 5f] | 1 to 2 | 0.01 to 1 | 2.5 to 7.5 | – |
| CC(C)Oc1cccc(C(=O)N[C@@H](C)C(=O)N2CCC[C@H]2C(=O)N[C@H](C=O)CC(=O)O)c1 [Example 122h, 3-({1-[2-(3-Isopropoxy-benzoylamino)-propionyl]-pyrrolidine-2-carbonyl}-amino)-4-oxo-butyric acid] | 1 to 2 | 0.01 to 1 | < 2.5 | – |
| C[C@H](NC(=O)c1ccc(N)c(OC(F)(F)F)c1)C(=O)N1CCC[C@H]1C(=O)N[C@H](C=O)CC(=O)O [Example 7y] | > 2 | 0.01 to 1 | > 7.5 | – |
| CC(=O)N1CCN(C(=O)[C@H](C)NC(=O)c2nccc3ccccc23)[C@H](C(=O)N[C@H](C=O)CC(=O)O)C1 [Example 18d] | 0.5 to 1 | 0.01 to 1 | < 2.5 | – |
| COC(=O)N[C@@H]1C[C@@H](C(=O)N[C@H](C=O)CC(=O)O)N(C(=O)[C@@H](NC(=O)c2ccc(OC)cc2)C(C)C)C1 [Example 9e] | 1 to 2 | < 0.01 | 2.5 to 7.5 | – |
| CC(C)[C@H](NC(=O)c1ccc2c(c1)C(=O)c1ccccc1-2)C(=O)N1CCC[C@H]1C(=O)N[C@H](C=O)CC(=O)O [Example 5bb] | 0.5 to 1 | < 0.01 | 2.5 to 7.5 | – |
